From ChEMBL document CHEMBL1201862, “PubChem BioAssay data set” (2004)
The source made the active and inactive calls.

What was measured:
fMet-Leu-Phe receptor = target: T1, fMet-Leu-Phe receptor (Homo sapiens, UniProt P21462); experiment: formyl peptide receptor binders – dose response (AID 519); format: functional
T1 sequence (P21462 whole entry): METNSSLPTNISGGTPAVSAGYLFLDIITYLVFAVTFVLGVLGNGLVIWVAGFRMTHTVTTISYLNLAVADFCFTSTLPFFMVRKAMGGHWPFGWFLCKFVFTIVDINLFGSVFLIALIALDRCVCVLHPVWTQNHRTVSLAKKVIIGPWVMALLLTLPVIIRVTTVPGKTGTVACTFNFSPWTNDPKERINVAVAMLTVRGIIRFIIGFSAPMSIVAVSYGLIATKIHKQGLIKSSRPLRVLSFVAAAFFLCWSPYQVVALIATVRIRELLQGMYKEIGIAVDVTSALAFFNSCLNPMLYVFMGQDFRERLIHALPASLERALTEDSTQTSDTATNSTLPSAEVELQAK

[1] = IC50 of Artemis nuclease activity blockers – biochemical, fluorescence intensity, dose response (AID 720701); format: functional;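 note: Artemis endonuclease enzyme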
[2] = viability loss in HEK293 cells – cell-based, plate reader, cherry-picked samples, cytotoxicity control, dose response (AID 743446); format: functional
[3] = toxicity toward HepG2 liver cells – cell-based, plate reader, cherry-pick, antagonist series, cytotoxicity control, dose response (AID 743416); format: functional
[4] = target: T2, Oxysterols receptor LXR-beta (Homo sapiens, UniProt P55055); format: functional, cell-based;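 note: agonist activity at LXR measured by a cell-based luminescence readout across a dose range, run as a counterscreen for daf-12 agonists; HEK293 cells with Gal4-LXR fusion and GAL4-driven luciferase reporter; potency for activation of Gal4-LXR reporter so compounds are agonists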
T2 sequence (P55055 whole entry): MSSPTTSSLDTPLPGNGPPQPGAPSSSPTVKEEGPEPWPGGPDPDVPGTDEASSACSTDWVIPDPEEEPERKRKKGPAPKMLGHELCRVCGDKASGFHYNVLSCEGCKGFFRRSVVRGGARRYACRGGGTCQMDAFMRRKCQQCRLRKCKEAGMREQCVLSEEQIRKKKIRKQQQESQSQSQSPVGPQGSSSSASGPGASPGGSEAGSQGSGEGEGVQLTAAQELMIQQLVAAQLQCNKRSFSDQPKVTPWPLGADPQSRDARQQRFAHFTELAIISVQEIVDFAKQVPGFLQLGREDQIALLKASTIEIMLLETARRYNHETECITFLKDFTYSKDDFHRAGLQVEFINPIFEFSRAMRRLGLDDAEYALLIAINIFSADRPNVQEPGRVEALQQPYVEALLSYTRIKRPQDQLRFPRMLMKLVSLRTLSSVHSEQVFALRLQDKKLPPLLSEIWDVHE

[5] = viability loss in MITF-independent A375 cells – cell-based, CellTiter-Glo luminescence, dry powder, set 2, counter-screen for MITF inhibitor project, dose response (AID 624489); format: functional; details: A-375;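 note: actives are compounds lowering A375 viability meaning general cytotoxicity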
[6] = cytotoxicity in MITF-independent A375 cells – cell-based, CellTiter-Glo luminescence, dry powder, set 4, counter-screen for MITF inhibitor project, dose response (AID 624364); format: functional; details: A-375;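 note: A375 melanoma cells are MITF independent so this is a counter screen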
[7] = OVCAR-3 cell viability loss – plate reader, dry powder samples, PAX8 inhibitor project, dose response (AID 743044); format: functional, cell-based
[8] = OVCAR8 cell viability loss – plate reader, dry powder samples, PAX8 project, dose response (AID 743197); format: functional, cell-based; details: OVCAR-8
[9] = A2780 cell killing – plate reader, dry powder samples, cytotoxicity control, dose response (AID 743046); format: functional, cell-based
Paired box protein Pax-8 = Paired box protein Pax-8 (Homo sapiens, UniProt Q06710); experiment: PAX8 transcriptional activity inhibition in RMG-I – RMG-I cells, luciferase, cherry-pick, dose response (AID 687027); format: functional, cell-based;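 note: luciferase reporter driven by Pax8 target thyroperoxidase promoter measured by SteadyGlo luminescence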
[10] = reduced cellular PGC1a acetyl-lysine signal – cell-based, cherry-picked samples, dose response (AID 720514); format: functional;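 note: potency may reflect raised or lowered acetylation signal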
[11] = target: T3, Methionyl-tRNA synthetase, putative (Trypanosoma brucei brucei, UniProt Q38C91); format: functional, Trypanosoma brucei brucei strain 927/4 GUTat10.1
T3 sequence (Q38C91 whole entry): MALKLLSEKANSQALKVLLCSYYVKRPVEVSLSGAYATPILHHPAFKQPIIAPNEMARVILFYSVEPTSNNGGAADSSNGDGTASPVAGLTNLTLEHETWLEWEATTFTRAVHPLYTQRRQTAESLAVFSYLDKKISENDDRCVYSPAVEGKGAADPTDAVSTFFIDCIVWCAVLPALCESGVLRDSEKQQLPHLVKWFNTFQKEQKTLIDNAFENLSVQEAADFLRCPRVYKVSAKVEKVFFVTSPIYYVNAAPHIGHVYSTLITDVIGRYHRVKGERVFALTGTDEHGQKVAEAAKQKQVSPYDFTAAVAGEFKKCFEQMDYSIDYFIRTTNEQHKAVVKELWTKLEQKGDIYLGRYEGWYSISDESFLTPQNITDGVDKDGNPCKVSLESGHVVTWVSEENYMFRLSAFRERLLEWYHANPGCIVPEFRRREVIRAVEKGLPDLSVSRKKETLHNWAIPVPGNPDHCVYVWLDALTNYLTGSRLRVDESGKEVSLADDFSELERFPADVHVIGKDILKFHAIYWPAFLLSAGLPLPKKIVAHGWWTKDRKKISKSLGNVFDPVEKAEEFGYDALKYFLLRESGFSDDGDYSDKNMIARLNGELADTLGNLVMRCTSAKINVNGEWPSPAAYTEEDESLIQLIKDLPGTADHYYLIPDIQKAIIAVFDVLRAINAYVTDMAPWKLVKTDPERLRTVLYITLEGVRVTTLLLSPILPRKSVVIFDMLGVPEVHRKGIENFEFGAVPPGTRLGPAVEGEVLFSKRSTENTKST

[12] = target: T3, Methionyl-tRNA synthetase, putative; format: functional, Trypanosoma brucei brucei strain 927/4 GUTat10.1; remark: listed apart in the source
[13] = target: T4, Calpain-2 catalytic subunit (Sus scrofa, UniProt P43367); experiment: m-calpain protease blockers, concentration series – biochemical, fluorogenic peptide substrate, dose response (AID 1420); format: functional
T4 sequence (P43367 whole entry): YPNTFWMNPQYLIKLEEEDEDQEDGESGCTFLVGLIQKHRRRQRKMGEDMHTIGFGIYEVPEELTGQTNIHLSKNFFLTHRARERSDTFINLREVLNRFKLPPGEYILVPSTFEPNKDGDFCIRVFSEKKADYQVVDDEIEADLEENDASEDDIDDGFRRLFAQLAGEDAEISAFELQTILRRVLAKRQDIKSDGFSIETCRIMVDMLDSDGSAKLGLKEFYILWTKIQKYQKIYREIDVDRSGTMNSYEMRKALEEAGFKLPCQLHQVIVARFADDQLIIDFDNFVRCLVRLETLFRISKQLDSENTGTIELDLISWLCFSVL

[14] = HIV-1 AD8 envelope cell-cell fusion blockers – cherry-pick, dose response (AID 652062); format: functional, cell-based;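 note: luciferase signal from cell-cell fusion driven by HIV-1 clade B AD8 Env; potency is for inhibitors of fusion seen as a drop in luminescence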
[15] = blockers of HIV-1 ZM109 envelope-driven cell-cell fusion – HeLa effector, CEM target cells, luciferase, cherry-pick, dose response (AID 652058); format: functional, cell-based;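 note: luciferase signal from HIV-1 Env mediated cell-cell fusion of effector and target cells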
[16] = blockers of HIV-1 envelope-mediated cell-cell fusion – cherry-pick, dose response (AID 652057); format: functional, cell-based
[17] = off-target signal loss in HeLa-CEM21 co-culture – HeLa F-luc CTL cells, cherry-picked, counter-screen for HIV-1 Env fusion inhibitor project, dose response (AID 652040); format: functional, cell-based;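 note: potency for signal decrease marking cytotoxic or nonspecific inhibition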
[18] = Counterscreen for inhibitors of Trypanosoma brucei methionyl tRNA synthetase (MetRS): Luminescence-based cell-based high throughput dose response assay to identify compounds that are cytotoxic to Jurkat human T lymphocyte cells.; format: functional
[19] = general cell-killing toxicity readout – plate reader, dry powder samples, cytotoxicity control for PAX8 inhibitor project, dose response (AID 743021); format: functional, cell-based
[20] = nonselective StAR promoter luciferase inhibitors – cell-based, luminescence, luciferase reporter, counter-screen for LRH-1 inverse agonist project, dose response (AID 651969); format: functional
Steroidogenic factor 1 = Steroidogenic factor 1 (Homo sapiens, UniProt Q13285); experiment: Counterscreen for inverse agonists of the liver receptor homolog-1 (LRH-1; NR5A2): Luminescence-based cell-based high throughput dose response assay to identify inverse agonists of the Steroidogenic Factor 1 Nuclear Receptor (SF1; NR5A1).; format: functional
[21] = target: Nuclear receptor subfamily 5 group A member 2 (Homo sapiens, UniProt O00482); format: functional, cell-based;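 note: HEK293T cells transfected with LRH-1 and a StAR promoter luciferase reporter; potency for inhibitors that lower LRH-1 driven reporter light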
[22] = target: T5, Long-chain-fatty-acid--AMP ligase FadD28 (Mycobacterium tuberculosis, UniProt P9WQ59); experiment: Fluorescence polarization aasay to screen for inhibitors that compete for the binding of FadD28 to a bisubstrate Measured in Biochemical System Using Plate Reader - 2147-01_Inhibitor_Dose_CherryPick_Activity.; format: functional, Mycobacterium tuberculosis H37Rv
T5 sequence (P9WQ59 whole entry): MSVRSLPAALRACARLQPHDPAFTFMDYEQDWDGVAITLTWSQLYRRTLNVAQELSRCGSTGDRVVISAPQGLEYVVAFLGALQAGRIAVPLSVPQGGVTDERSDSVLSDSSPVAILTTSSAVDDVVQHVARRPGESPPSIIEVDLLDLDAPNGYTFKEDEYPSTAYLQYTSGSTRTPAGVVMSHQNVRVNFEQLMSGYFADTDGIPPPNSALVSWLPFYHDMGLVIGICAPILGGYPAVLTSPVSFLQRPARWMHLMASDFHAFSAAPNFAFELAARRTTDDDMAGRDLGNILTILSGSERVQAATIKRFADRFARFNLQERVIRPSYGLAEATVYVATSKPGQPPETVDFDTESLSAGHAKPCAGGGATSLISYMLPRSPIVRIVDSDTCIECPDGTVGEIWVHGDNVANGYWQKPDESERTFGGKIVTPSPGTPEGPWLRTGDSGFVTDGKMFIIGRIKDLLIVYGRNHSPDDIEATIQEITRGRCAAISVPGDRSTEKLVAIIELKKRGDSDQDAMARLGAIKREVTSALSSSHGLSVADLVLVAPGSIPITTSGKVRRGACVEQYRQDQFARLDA

[23] = blockers of bursicon-stimulated LGR2 cAMP reporter – cell-based, HEK293, CRE-luciferase reporter, cherry pick, set 2, dose response (AID 743343); format: functional;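 note: transfected cells were stimulated with diluted bursicon conditioned medium after compound addition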
[24] = blockade of melanocortin 4 receptor signaling – cell-based, plate reader, cherry pick, counter-screen for LGR2 antagonist project, dose response (AID 743444); format: functional;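 note: transfected HEK 293 cells stimulated with alpha-MSH peptide; potency of inhibitors of the alpha-MSH evoked signal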

Paired box protein Pax-8, sequence (Q06710 whole entry): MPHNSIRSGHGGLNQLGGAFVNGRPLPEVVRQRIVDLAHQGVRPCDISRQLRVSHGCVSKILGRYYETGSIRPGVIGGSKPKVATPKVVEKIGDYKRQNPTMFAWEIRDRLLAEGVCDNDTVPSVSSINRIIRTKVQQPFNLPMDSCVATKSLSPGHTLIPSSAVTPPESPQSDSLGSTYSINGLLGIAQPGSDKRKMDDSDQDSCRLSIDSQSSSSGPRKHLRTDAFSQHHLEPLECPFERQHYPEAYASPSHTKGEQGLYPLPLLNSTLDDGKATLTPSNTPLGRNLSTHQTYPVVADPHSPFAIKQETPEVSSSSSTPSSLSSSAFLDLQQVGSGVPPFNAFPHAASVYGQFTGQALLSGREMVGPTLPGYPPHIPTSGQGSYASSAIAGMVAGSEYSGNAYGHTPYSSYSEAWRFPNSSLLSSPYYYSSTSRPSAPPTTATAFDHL
Steroidogenic factor 1, sequence (Q13285 whole entry): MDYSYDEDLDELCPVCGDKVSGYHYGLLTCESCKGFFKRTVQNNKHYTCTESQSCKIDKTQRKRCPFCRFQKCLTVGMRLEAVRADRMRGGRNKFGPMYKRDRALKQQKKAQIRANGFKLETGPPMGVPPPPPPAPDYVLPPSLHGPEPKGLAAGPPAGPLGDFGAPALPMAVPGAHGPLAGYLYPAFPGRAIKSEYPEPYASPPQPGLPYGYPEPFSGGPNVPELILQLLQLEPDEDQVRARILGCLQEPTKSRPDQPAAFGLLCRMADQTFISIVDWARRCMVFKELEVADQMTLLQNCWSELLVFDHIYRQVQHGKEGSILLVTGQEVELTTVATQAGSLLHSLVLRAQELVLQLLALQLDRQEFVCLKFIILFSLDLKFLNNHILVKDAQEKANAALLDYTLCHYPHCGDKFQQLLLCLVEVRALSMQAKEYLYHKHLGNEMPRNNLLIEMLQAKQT
Nuclear receptor subfamily 5 group A member 2, sequence (O00482 whole entry): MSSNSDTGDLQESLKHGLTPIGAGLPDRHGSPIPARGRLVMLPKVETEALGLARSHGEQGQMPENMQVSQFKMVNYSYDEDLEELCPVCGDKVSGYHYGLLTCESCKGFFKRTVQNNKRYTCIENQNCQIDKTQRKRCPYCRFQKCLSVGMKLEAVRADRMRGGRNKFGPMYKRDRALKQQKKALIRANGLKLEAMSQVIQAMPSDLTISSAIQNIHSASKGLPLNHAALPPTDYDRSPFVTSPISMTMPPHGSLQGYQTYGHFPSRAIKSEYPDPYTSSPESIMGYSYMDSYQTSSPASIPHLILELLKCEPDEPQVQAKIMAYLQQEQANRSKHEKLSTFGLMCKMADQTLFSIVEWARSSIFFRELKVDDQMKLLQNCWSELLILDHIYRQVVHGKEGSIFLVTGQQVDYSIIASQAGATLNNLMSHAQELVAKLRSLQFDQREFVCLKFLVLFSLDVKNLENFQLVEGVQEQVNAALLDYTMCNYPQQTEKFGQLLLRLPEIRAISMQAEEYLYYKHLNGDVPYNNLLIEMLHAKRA

CC1CCN(S(=O)(=O)c2ccc3c(c2)oc(=O)n3CC(=O)NCc2ccc3c(c2)OCO3)CC1
Ki (fMet-Leu-Phe receptor): > 66.7 µM (inactive)

CCOC(=O)C1CCN(Cc2ccc(C(=O)OC)cc2)CC1
Ki (fMet-Leu-Phe receptor): > 66.7 µM (inactive)

CNc1nc(-c2c[nH]c3ccccc23)cs1
IC50 [1]: > 20 µM (inactive)

COc1ccc(NC(=O)Nc2ccc3c(c2)CC(=O)N([C@@H](C)CO)C[C@@H](C)[C@H](CN(C)Cc2ccncc2)O3)cc1
AC50 [2]: > 52 µM (inactive) | AC50 [3]: > 52 µM (inactive)

ON=C(CCc1ccccc1)c1ccccc1
EC50 [4]: > 67.5 µM (inactive)

O=C(NC1=C(c2ccc(OC(F)(F)F)cc2)C(=O)c2ccccc2C1=O)c1ccccc1
AC50 [5]: 20.7 µM (active) | AC50 [6]: 28.5 µM (active)

COc1ccccc1-c1noc(-c2cccs2)n1
EC50 [4]: > 67.5 µM (inactive)

C[C@@H]1CCCCO[C@H](CN(C)C(=O)Cc2ccccc2)[C@@H](C)CN([C@@H](C)CO)C(=O)c2cc(NS(=O)(=O)c3ccc(Cl)cc3)ccc2O1
AC50 [7]: 23.3 µM (active) | AC50 [8]: 39.2 µM (active) | AC50 [9]: 48.6 µM (active) | AC50 (Paired box protein Pax-8): 7.18 µM (active)

Oc1cc(CSc2ccccn2)nc(O)n1
AC50 [10]: 1.86 µM (active)

C=CCNC1=C(NCCCN(CC)CC)C(=O)c2ccccc2C1=O
AC50 [5]: 17.9 µM (active) | AC50 [6]: 25.3 µM (active)

O=C(NCc1ccco1)c1cccc(Nc2nc3ccc(Br)cc3[nH]2)c1
IC50 [11]: 22.3 µM (inactive) | IC50 [12]: 13.5 µM (inactive) | IC50 [13]: 11.9 µM (not active)

COc1cc(/C=N/NS(=O)(=O)c2ccc(C)cc2)ccc1OCc1cccc(C(=O)O)c1
AC50 [14]: 6.48 µM (active) | AC50 [15]: 19.5 µM (active) | AC50 [16]: 2.17 µM (active) | AC50 (Paired box protein Pax-8): 13 µM (active) | AC50 [17]: 5.81 µM (active)

O=C(NCc1ccco1)c1cccc(Nc2nc3cc(Br)ccc3[nH]2)c1
IC50 [18]: 83.3 µM (inactive)

COc1ccccc1C#Cc1ccc2c(c1)O[C@@H](CN(C)Cc1cccnc1)[C@H](C)CN([C@H](C)CO)S2(=O)=O
AC50 [19]: 21.8 µM (active) | AC50 [8]: 18.3 µM (active) | AC50 (Paired box protein Pax-8): 2.04 µM (active) | AC50 [10]: 5.09 µM (active)

COc1ccc(CCNC(=O)CSc2ccc(NC(C)=O)cc2)cc1OC
IC50 [20]: 35.9 µM (inactive) | IC50 (Steroidogenic factor 1): 2.27 µM (active) | IC50 [21]: 17.4 µM (inactive)

COc1ccc(Nc2c(CCc3ccccc3)nc3nc(C)cc(C)n23)cc1
AC50 [14]: 4.63 µM (active) | AC50 [15]: 6.28 µM (active) | AC50 [16]: 5.27 µM (active) | AC50 [17]: 4.03 µM (active)

O=C(CN1C(=O)NC2(CCOc3ccccc32)C1=O)c1ccc(Cl)s1 (centres undefined)
AC50 [22]: > 100 µM (inactive)

O=C(NNC(=O)c1cc(-c2cccnc2)nc2ccccc12)Nc1ccc(Cl)cc1
IC50 [18]: 63 µM (inactive) | IC50 [11]: 39.5 µM (inactive) | IC50 [12]: 25.8 µM (inactive)

O=C(OCC(=O)c1c[nH]c2ccccc12)c1ccc(F)c(S(=O)(=O)N2CCOCC2)c1
AC50 [22]: 60.2 µM (active)

Cc1ccc(C(=O)C2C(=O)C3CCC2C3)cc1 (centres undefined)
AC50 [23]: 8.6 µM (active) | AC50 [2]: > 52 µM (inactive) | AC50 [24]: 4.95 µM (active)
